Earlier results, collected in patent US20240148815A1, “FOOD SUPPLEMENT TO PROMOTE BODY WEIGHT LOSS” (NGN HEALTHCARE-NEW GENERATION NUTRACEUTICALS S.R.L., priority 2021, published 2024).
Structures can show the parent of a compound that is named as a salt.

Experiments:
[1] = test system: overweight women; details: 4 weeks, calorie-reduced diet
[2] = test system: rodents; details: intragastric preload prior to enteral glucose
[3] = test system: obese mice; details: intragastric, 4 weeks
[4] = test system: NCI-H716 cells
[5] = test system: NCI-716 and STC-1 cells (T2R38); details: by interacting with T2R38
[6] = test system: young healthy subjects; details: oral, encapsulated, 18 mg

For N[C@@H](Cc1c[nH]c2ccc(O)cc12)C(=O)O [5-hydroxytryptophan], the BMI [1] is given as “decrease” and the feeling of satiety [1] is given as “significantly increased”.
In the case of CC[N+](CC)(CC(=O)Nc1c(C)cccc1C)Cc1ccccc1 [DB, denatonium benzoate], the GLP-1 plasma levels [2] is listed as “increase”, the blood glucose [2] is listed as “reduction” and the gastric emptying [2] is listed as “slowing”. For the same compound, the insulin concentration [2] was “increase”, the “meal-induced GLP-1 secretion” value [3] was “increase” and the body weight ([3]; obese mice) was “reduction”. The PYY secretion [4] was “stimulates”.
In the case of COc1ccc2cc3[n+](cc2c1OC)CCc1cc2c(cc1-3)OCO2 [berberine], the GLP-1 secretion [5] is given as “dose-dependently stimulate”.
For NC(=S)Nc1ccccc1 [phenylthiourea], the GLP-1 secretion [5] is listed as “dose-dependently stimulate”.
For C=C[C@H]1C[N@@]2CC[C@H]1C[C@H]2[C@H](O)c1ccnc2ccc(OC)cc12 [quinine HCl], the CCK plasma concentrations [6] is given as “increased” and the “energy intake during an ad libitum meal” value [6] is given as “reduced”.
